Measurements reported in ChEMBL document CHEMBL1201862, “PubChem BioAssay data set” (2004).
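All cell lines were grown in 96-well plates and treated with compound for 48 hours. Here, GI50 denotes the concentration required for 50% inhibition of growth.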 Calls of active or inactive are those of the source. Rule as the data show it: active = GI50 up to about 1.1 µM and inactive = higher.

Legend:
Assay in all cases: DTP human tumour cell line panel, 48 h
[1] = system: A498
[2] = system: PC-3
[3] = system: HCC 2998
[4] = system: NCI-H460
[5] = system: MDA-MB-231
[6] = system: OVCAR-8
[7] = system: MDA-MB-435
[8] = system: HL-60
[9] = system: Hs-578T
[10] = system: SK-MEL-2
[11] = system: NCI-H226
[12] = system: SW-620
[13] = system: OVCAR-4
[14] = system: Malme-3M
[15] = system: SF-268
[16] = system: IGROV-1
[17] = system: SNB-19
[18] = system: RXF 393
[19] = system: SK-MEL-5
[20] = system: BT-549

Measured: GI50

COC(=O)[C@@H]1C[C@@]23CCCN4CC[C@@]5(c6cccc(OC)c6N(C=O)[C@]15CC2)[C@@H]43
inactive: [1] > 100 µM | [2] > 100 µM | [3] > 100 µM | [4] > 100 µM | [5] > 100 µM | [6] > 100 µM | [7] > 100 µM | [8] > 100 µM | [9] > 100 µM | [10] > 100 µM | [11] > 100 µM | [12] > 100 µM | [13] > 100 µM | [14] > 100 µM | [15] > 100 µM | [16] > 100 µM | [17] > 100 µM | [18] > 100 µM | [19] > 100 µM | [20] > 100 µM

Cc1ccc([S@+]([O-])c2occc2C=O)cc1
inactive: [1] 17.1 µM | [2] 5.02 µM | [3] 14.5 µM | [4] 9.91 µM | [5] 8.65 µM | [6] 9.93 µM | [7] 7.55 µM | [8] 1.8 µM | [9] 16.4 µM | [10] 15 µM | [11] 19.4 µM | [12] 1.93 µM | [13] 9.98 µM | [14] 3.7 µM | [15] 5.38 µM | [16] 11.7 µM | [17] 5.07 µM | [18] 13.3 µM | [19] 10.4 µM | [20] 12 µM

OCCN(CCO)CCn1cnc2c(NCc3ccccc3)ncnc21
inactive: [1] > 100 µM | [2] > 100 µM | [3] > 100 µM | [4] > 100 µM | [5] > 100 µM | [6] > 100 µM | [7] > 100 µM | [8] > 100 µM | [9] > 100 µM | [10] > 100 µM | [11] > 100 µM | [12] > 100 µM | [13] > 100 µM | [14] > 100 µM | [15] > 100 µM | [16] > 100 µM | [17] > 100 µM | [18] > 100 µM | [19] > 100 µM | [20] > 100 µM

CN(C)c1ccc(/N=N/c2ccccn2)cc1
inactive: [1] 22.1 µM | [2] 3.97 µM | [3] 14.1 µM | [4] 28.8 µM | [5] 20.8 µM | [6] 38.9 µM | [7] 23.4 µM | [8] 4.26 µM | [9] > 100 µM | [10] 55.1 µM | [11] 32 µM | [12] 17.5 µM | [13] 36.2 µM | [14] 22.6 µM | [15] 51.2 µM | [16] 5.93 µM | [17] 58.6 µM | [18] > 100 µM | [19] 15.4 µM | [20] 81.3 µM
